This note sets out measurements from patent US12275729B2 (Merck Sharp & Dohme LLC, priority 2017, dated 2025).

For assay [1], the target named is T1, IDO1 (Homo sapiens, UniProt P14902). In words: IDO1 Cellular Assay in HeLa Cells Stimulated with IFNγ. Type of assay: cell-based. The settings on record: read-out: Hela IC50.
The target of assay [2] is T1, IDO1. Nature of the assay: IDO1 Human Whole Blood Assay. Type of assay: cell-based. Details: Human whole blood was drawn in sodium heparin coated tubes from healthy internal donors; from tissue; host or cells: human whole blood from healthy donors, stimulated with LPS and IFNγ. The settings on record: LPS and IFNγ stimulated.

The structures appear in SMILES notation. pIC50: −log10 of the molar value.

T1 sequence (P14902 whole entry): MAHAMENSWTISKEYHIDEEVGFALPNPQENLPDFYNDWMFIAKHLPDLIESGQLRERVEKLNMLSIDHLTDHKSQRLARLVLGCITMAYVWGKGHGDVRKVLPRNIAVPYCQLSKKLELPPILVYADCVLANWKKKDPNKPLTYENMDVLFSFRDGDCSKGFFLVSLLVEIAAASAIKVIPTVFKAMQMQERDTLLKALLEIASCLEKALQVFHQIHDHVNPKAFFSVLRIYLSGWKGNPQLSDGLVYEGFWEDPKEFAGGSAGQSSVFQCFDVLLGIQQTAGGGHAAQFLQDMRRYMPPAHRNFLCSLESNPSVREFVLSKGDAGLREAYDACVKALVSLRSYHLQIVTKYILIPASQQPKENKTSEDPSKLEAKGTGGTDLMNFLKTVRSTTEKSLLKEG

The pIC50 is −log10 of the IC50, conventionally taken in molar units. As to `CC(C(=O)Nc1ccc(F)cc1)c1ccc2c(n1)CCCN2c1ccnc(C(F)(F)F)n1` (stereo not drawn) [Example 364, N-(4-fluorophenyl)-2-(5-(2-(trifluoromethyl)pyrimidin-4-yl)-5,6,7,8-tetrahydro-1,5-naphthyridin-2-yl)propanamide], the negative-log IC50 (pIC50) on IDO1 [1] was 8.30; against IDO1 [2] it was 6.70.

As to `CC(NC(=O)c1ccc(Cl)cc1)c1ccc2c(n1)CCCN2c1ccnc(C(F)(F)F)n1` (stereo not drawn) [Example 345, 4-chloro-N-(1-(5-(2-(trifluoromethyl)pyrimidin-4-yl)-5,6,7,8-tetrahydro-1,5-naphthyridin-2-yl)ethyl)benzamide], the negative logarithm of the IC50 (pIC50) on IDO1 [1] is 8.76; against IDO1 [2], 7.49.

For the compound `O=C([C@@H]1CCCCO1)N1CCCc2cc(C3(C(=O)Nc4ccc(F)cc4)CCC3)ccc21` (single isomer, unassigned) [Example 105], the figures for the pIC50 at IDO1 [1] (about 48 hours) and at IDO1 [2] were 8.72 and 7.21, respectively.

On to `O=C(N[C@@H](c1ccc2c(n1)CCCN2C(=O)C1CC1)C(F)(F)F)c1ccc(F)cc1` [Example 425, (S)—N-(1-(5-(cyclopropanecarbonyl)-5,6,7,8-tetrahydro-1,5-naphthyridin-2-yl)-2,2,2-trifluoroethyl)-4-fluorobenzamide], for which the pIC50 at IDO1 [1] was 6.63; against IDO1 [2] it was 7.54.

In the case of `C[C@@H](C(=O)Nc1ccc(F)cn1)c1ccc2c(c1)CCCN2C(=O)c1cccc(Cl)c1` (single isomer, unassigned) [Example 55], the negative logarithm of the IC50 (pIC50) at IDO1 [1] (about 48 hours) is 8.62; on IDO1 [2], 7.72.

In the case of `CC(NC(=O)c1ccc(F)cc1)c1ccc2c(n1)CCCN2C(=O)c1ccccc1Cl` (stereo not drawn) [Example 141, N-{1-[5-(2-chlorobenzene-1-carbonyl)-5,6,7,8-tetrahydro-1,5-naphthyridin-2-yl]ethyl}-4-fluorobenzamide], the figures for the pIC50 at IDO1 [1] (about 48 hours) and at IDO1 [2] were 8.77 and 7.59, respectively.

In the case of `O=C(Nc1ccc(F)cc1)C1(c2ccc3c(n2)CCCN3c2ccnc(C3CC3)n2)CCC1` [Example 401, 1-(5-(2-cyclopropylpyrimidin-4-yl)-5,6,7,8-tetrahydro-1,5-naphthyridin-2-yl)-N-(4-fluorophenyl)cyclobutane-1-carboxamide], the negative logarithm of the IC50 (pIC50) at IDO1 [1] (about 48 hours) is 8.73; on IDO1 [2], 8.40.

On to `CC(C(=O)Nc1ccc(F)cc1)c1ccc2c(n1)CCCN2C(=O)[C@H]1CCCO1` (stereo partly drawn) [Example 137, N-(4-fluorophenyl)-2-(5-((R)-tetrahydrofuran-2-carbonyl)-5,6,7,8-tetrahydro-1,5-naphthyridin-2-yl)propanamide], for which the negative logarithm of the IC50 (pIC50) on IDO1 [1] (about 48 hours) is 7.92; against IDO1 [2], 7.54.

In the case of `CC(NC(=O)c1ccc(F)cc1)c1ccc2c(n1)CCCN2C(=O)c1cc(C(F)(F)F)ccn1` (stereo not drawn) [Example 278, 4-fluoro-N-(1-(5-(4-(trifluoromethyl)picolinoyl)-5,6,7,8-tetrahydro-1,5-naphthyridin-2-yl)ethyl)benzamide], the results for the negative logarithm of the IC50 (pIC50) at IDO1 [1] (about 48 hours) and against IDO1 [2] were 6.33 and 7.30, respectively.

For the compound `C[C@H](C(=O)Nc1ccc(F)cc1)c1ccc2c(c1)CCCN2C(=O)[C@H]1CCCCO1` (single isomer, unassigned) [Example 87], the negative-log IC50 (pIC50) was 8.68 on IDO1 [1] (about 48 hours) and 7.66 on IDO1 [2].

Take `Cc1nccc(N2CCCc3nc(C4(C(=O)Nc5ccc(F)cc5)CC(O)C4)ccc32)n1` (stereo not drawn) [Example 426, 2-(1-((4-fluorophenyl)carbamoyl)-3-hydroxycyclobutyl)-5-(2-methylpyrimidin-4-yl)-5,6,7,8-tetrahydro-1,5-naphthyridin-1-ium 2,2,2-trifluoroacetate]: the pIC50 was 7.15 on IDO1 [1] and 6.00 against IDO1 [2].

Consider `Cc1cccc(N2CCCc3nc(C4(C(=O)Nc5ccc(Cl)cc5)CCC4)ccc32)n1` [Example 404, N-(4-chlorophenyl)-1-(5-(6-methylpyridin-2-yl)-5,6,7,8-tetrahydro-1,5-naphthyridin-2-yl)cyclobutane-1-carboxamide], for which the values for the pIC50 at IDO1 [1] (about 48 hours) and at IDO1 [2] were 8.48 and 7.70, respectively.

In the case of `O=C(Nc1ccc(Cl)cc1)C1(c2ccc3c(n2)CCCN3c2cccc(C3CC3)n2)CCC1` [Example 408, N-(4-chlorophenyl)-1-(5-(6-cyclopropylpyridin-2-yl)-5,6,7,8-tetrahydro-1,5-naphthyridin-2-yl)cyclobutane-1-carboxamide], the pIC50 was 7.94 at IDO1 [1] (about 48 hours) and 5.53 at IDO1 [2].

For `CC(NC(=O)c1ccc(Cl)cc1)c1ccc2c(n1)CCCN2c1cccc(C2CC2)n1` (stereo not drawn) [Example 351, 4-chloro-N-(1-(5-(6-cyclopropylpyridin-2-yl)-5,6,7,8-tetrahydro-1,5-naphthyridin-2-yl)ethyl)benzamide], the pIC50 on IDO1 [1] is 8.47; on IDO1 [2], 7.74.

On to `O=C(c1cccc(Cl)c1)N1CCc2nc(C3(C(=O)Nc4ccc(F)cc4)CCC3)ccc21` [Example 275, 1-[1-(3-chlorobenzene-1-carbonyl)-2,3-dihydro-1H-pyrrolo[3,2-b]pyridin-5-yl]-N-(4-fluorophenyl)cyclobutane-1-carboxamide], for which the pIC50 at IDO1 [1] (about 48 hours) is 8.52; on IDO1 [2], 7.03.

Turning to `CC(C(=O)Nc1ccc(Cl)cc1)c1ccc2c(c1)CC(F)CN2C(=O)c1cccc(Cl)c1` (single isomer, unassigned) [Example 257, 2-(1-(3-chlorobenzoyl)-3-fluoro-1,2,3,4-tetrahydroquinolin-6-yl)-N-(4-chlorophenyl)propanamide], the values for the pIC50 at IDO1 [1] (about 48 hours) and against IDO1 [2] were 8.87 and 7.46, respectively.

As for `C[C@H](NC(=O)c1ccc(Cl)cc1)c1ccc2c(n1)OCCN2C(=O)c1cccc(Cl)c1` (single isomer, unassigned) [Example 254, 4-chloro-N-(1-(1-(3-chlorobenzoyl)-2,3-dihydro-1H-pyrido[2,3-b][1,4]oxazin-6-yl)ethyl)benzamide], the values for the pIC50 on IDO1 [1] (about 48 hours) and at IDO1 [2] were 8.43 and 6.58, respectively.

For `O=C(OC1CC1)N1CCCc2nc(C3(C(=O)Nc4ccc(Cl)nc4)CC4(CC4)C3)ccc21` [Example 418, 2-(5-((6-chloropyridin-3-yl)carbamoyl)spiro[2.3]hexan-5-yl)-5-(cyclopropoxycarbonyl)-5,6,7,8-tetrahydro-1,5-naphthyridin-1-ium 2,2,2-trifluoroacetate], the pIC50 on IDO1 [1] is 8.87; against IDO1 [2], 6.62.

With `O=C(C1CC1)N1CCc2nc(C3(C(=O)Nc4ccc(F)cc4)CCC3)ccc21` [Example 268, 1-[1-(cyclopropanecarbonyl)-2,3-dihydro-1H-pyrrolo[3,2-b]pyridin-5-yl]-N-(4-fluorophenyl)cyclobutane-1-carboxamide], the negative logarithm of the IC50 (pIC50) on IDO1 [1] (about 48 hours) was 8.10; against IDO1 [2] it was 6.49.

Consider `CC(NC(=O)c1ccc(Cl)cc1)c1ccc2c(n1)CCCN2C(=O)OCC(F)(F)F` (stereo not drawn) [Example 310], for which the results for the negative-log IC50 (pIC50) at IDO1 [1] and on IDO1 [2] were 8.79 and 7.34, respectively.

As for `CC(C(=O)Nc1ccc(F)cc1)c1ccc2c(n1)CCCN2C(=O)C1CCOCC1` (stereo not drawn) [Example 165, N-(4-fluorophenyl)-2-[5-(oxane-4-carbonyl)-5,6,7,8-tetrahydro-1,5-naphthyridin-2-yl]propanamide], the pIC50 at IDO1 [1] (about 48 hours) was 8.57; at IDO1 [2], 7.47.

For `CC(C(=O)Nc1ccc(F)cc1)c1ccc2c(c1)CCCN2Cc1cccc(Cl)c1` (racemic) [Example 224, 2-{1-[(3-chlorophenyl)methyl]-1,2,3,4-tetrahydroquinolin-6-yl}-N-(4-fluorophenyl)propanamide], the pIC50 at IDO1 [1] (about 48 hours) was 8.10; against IDO1 [2], 6.26.

With `O=C(Nc1ccc(Cl)cc1)C1(c2ccc3c(n2)CCCN3c2ccnc(C(F)(F)F)n2)COC1` [Example 396, N-(4-chlorophenyl)-3-(5-(2-(trifluoromethyl)pyrimidin-4-yl)-5,6,7,8-tetrahydro-1,5-naphthyridin-2-yl)oxetane-3-carboxamide], the figures for the pIC50 on IDO1 [1] (about 48 hours) and against IDO1 [2] were 8.74 and 7.57, respectively.

In the case of `Cc1cc(C)n(COC(=O)N2CCCc3nc(C(C)NC(=O)c4ccc(F)cc4)ccc32)n1` (stereo not drawn) [Example 320, (3,5-dimethyl-1H-pyrazol-1-yl)methyl 6-(1-(4-fluorobenzamido)ethyl)-3,4-dihydro-1,5-naphthyridine-1(2H)-carboxylate], the negative-log IC50 (pIC50) on IDO1 [1] was 7.16; against IDO1 [2], 5.77.

On to `CC(NC(=O)c1ccc(F)cc1)c1ccc2c(n1)CCCN2C(=O)OCC(F)F` (stereo not drawn) [Example 309, 2,2-difluoroethyl 6-(1-(4-fluorobenzamido)ethyl)-3,4-dihydro-1,5-naphthyridine-1(2H)-carboxylate], for which the negative-log IC50 (pIC50) at IDO1 [1] was 7.61; against IDO1 [2] it was 7.11.

For `CC(C(=O)Nc1ccc(Cl)cc1)c1ccc2c(c1)CC(F)CN2C(=O)c1cccc(Cl)c1` (single isomer, unassigned) [Example 259, 2-(1-(3-chlorobenzoyl)-3-fluoro-1,2,3,4-tetrahydroquinolin-6-yl)-N-(4-chlorophenyl)propanamide], the pIC50 at IDO1 [1] (about 48 hours) is 8.60; against IDO1 [2], 7.39.

Consider `CCc1ccnc(C(=O)N2CCCc3nc(C(C)NC(=O)c4ccc(Cl)cc4)ccc32)c1` (stereo not drawn) [Example 286, 4-chloro-N-(1-(5-(4-ethylpicolinoyl)-5,6,7,8-tetrahydro-1,5-naphthyridin-2-yl)ethyl)benzamide], for which the pIC50 on IDO1 [1] (about 48 hours) is 8.92; against IDO1 [2], 7.05.

For `C[C@H](C(=O)Nc1ccc(F)cc1)c1ccc2c(c1)CCCN2C(=O)c1cccc(Cl)c1` (single isomer, unassigned) [Example 52], the figures for the negative-log IC50 (pIC50) on IDO1 [1] (about 48 hours) and against IDO1 [2] were 8.31 and 6.43, respectively.

Take `O=C(OC1CC1)N1CCCc2nc(C3(C(=O)Nc4ccc(F)cc4)CC4(CC4)C3)ccc21` [Example 417, cyclopropyl 6-(5-((4-fluorophenyl)carbamoyl)spiro[2.3]hexan-5-yl)-3,4-dihydro-1,5-naphthyridine-1(2H)-carboxylate]: the negative logarithm of the IC50 (pIC50) at IDO1 [1] is 9.14; against IDO1 [2] it was 7.92.

Regarding `Cc1nccc(N2CCCc3nc(C4(NC(=O)c5ccc(Cl)cc5)CC4)ccc32)n1` [Example 249, 4-chloro-N-(1-(5-(2-methylpyrimidin-4-yl)-5,6,7,8-tetrahydro-1,5-naphthyridin-2-yl)cyclopropyl)benzamide], the negative-log IC50 (pIC50) at IDO1 [1] (about 48 hours) was 9.15; against IDO1 [2], 7.20.
